Key:
[1] = tested on: Sinapis alba, Echinochloa crus-galli, Lolium multiflorum, Chrysanthemum segetum, Setaria spp., Abutilon theophrastic, Amaranthus retroflexus, Panicum miliaceum …; test: Post-emergence effect on weeds (greenhouse pot test, visual scoring); type: in vivo, mono- and dicotyledonous weeds; details: application rate of 1 kg or less of active substance per hectare; treated at three-leaf stage; scored visually after about 3 to 4 weeks
Description: Seeds or rhizome pieces of mono- and dicotyledonous weeds were placed in sandy loam soil in plastic pots, covered with soil and grown in a greenhouse under good growth conditions. Three weeks after sowing, the test plants were treated at the three-leaf stage. The compounds according to the invention, formulated as wettable powders or emulsion concentrates, were sprayed, at various dosages, onto the green parts of the plants at an application rate of 600 to 800 l of water/ha (converted). After the test plants had remained in the greenhouse for about 3 to 4 weeks under optimum growth conditions, the effect of the preparations was scored visually by comparison with untreated controls. The agents according to the invention also have good herbicidal activity post-emergence against a broad spectrum of economically important weed grasses and broad-leaved weeds.

[2] = tested on: Sinapis alba, Chrysanthemum segetum, Avena sativa, Stellaria media, Echinochloa crus-galli, Lolium multiflorum, Setaria spp., Abutilon theophrasti, Amaranthus …; test: Pre-emergence effect on weeds (greenhouse pot test, visual scoring); type: in vivo, mono- and dicotyledonous weed plants; details: application rate of 1 kg or less of active substance per hectare; visually scored after 3 to 4 weeks vs untreated controls
Description: Seeds or rhizome pieces of mono- and dicotyledonous weed plants were placed in sandy loam soil in plastic pots and covered with soil. The compounds according to the invention, formulated in the form of wettable powders or emulsion concentrates, were then applied to the soil cover in the form of aqueous suspensions or emulsions at an application rate of 600 to 800 l of water/ha (converted), in various dosages. After the treatment, the pots were placed in a greenhouse and kept under good growth conditions for the weeds. After the test plants had emerged, the damage to the plants or the negative effect on the emergence was visually scored after a test period of 3 to 4 weeks by comparison with untreated controls. As shown by the test results, the compounds according to the invention have good herbicidal pre-emergence activity against a broad spectrum of week grasses and broad-leaved weeds.

## CCN(Cc1cccc(Oc2cc(C(F)(F)F)nn2C)n1)S(C)(=O)=O [Example 4]
[1]
  herbicidal activity post-emergence against weed plants: very good herbicidal activity
[2]
  herbicidal activity pre-emergence against weed plants: very good herbicidal activity

Source: patent publication US20030229125A1, “Herbicidal substituted pyridines, their preparation, and their use as herbicides and plant growth regulators” (priority 2001, published 2003)
